Source: PubChem BioAssay (NCI)
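The concentration for 50% growth inhibition is given as GI50. At the TGI there is no net growth.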

What was measured:
Assay in all cases: DTP human tumour cell line panel, 384-well format; in the data active = GI50 below about 0.43 µM; inactive = the rest
[1] = tested on: 786-0 renal
[2] = tested on: A498 renal
[3] = tested on: A549 NSCLC
[4] = tested on: ACHN renal
[5] = tested on: BT-549 breast
[6] = tested on: CAKI-1 renal
[7] = tested on: CCRF-CEM leukemia
[8] = tested on: COLO 205 colon
[9] = tested on: DU-145 prostate
[10] = tested on: EKVX NSCLC
[11] = tested on: HCC-2998 colon
[12] = tested on: HCT-116 colon
[13] = tested on: HCT-15 colon
[14] = tested on: HL-60(TB) leukemia
[15] = tested on: HOP-62 NSCLC
[16] = tested on: HOP-92 NSCLC
[17] = tested on: HS 578T breast
[18] = tested on: HT29 colon
[19] = tested on: IGROV1 ovarian
[20] = tested on: K-562 leukemia
[21] = tested on: KM12 colon
[22] = tested on: LOX IMVI melanoma
[23] = tested on: M14 melanoma
[24] = tested on: MALME-3M melanoma
[25] = tested on: MCF7 breast
[26] = tested on: MDA-MB-231 breast
[27] = tested on: MDA-MB-435 melanoma
[28] = tested on: MDA-MB-468 breast
[29] = tested on: MOLT-4 leukemia

Cc1cnc(CNC(=O)c2c(=O)c3ccc(N4CCCN(C)CC4)nc3n3c2sc2ccccc23)cn1
2260 nM: TGI [14]
1750 nM: TGI [25]
1450 nM: TGI [12]
33500 nM: TGI [9]
2450 nM: TGI [21]
2760 nM: TGI [13]
1410 nM: TGI [22]
1340 nM: TGI [3]
active: GI50 [1] 359 nM | GI50 [2] 112 nM | GI50 [3] 36.9 nM | GI50 [4] 64.3 nM | GI50 [7] 24.2 nM | GI50 [8] 244 nM | GI50 [12] 112 nM | GI50 [13] 87.7 nM | GI50 [14] 58.6 nM | GI50 [15] 122 nM | GI50 [16] 353 nM | GI50 [17] 69.7 nM | GI50 [18] 330 nM | GI50 [19] 323 nM | GI50 [20] 231 nM | GI50 [22] 138 nM | GI50 [25] 416 nM | GI50 [26] 397 nM
19200 nM: TGI [11]
> 100000 nM: TGI [4] | TGI [5] | TGI [6] | TGI [8] | TGI [10] | TGI [15] | TGI [16] | TGI [17] | TGI [18] | TGI [19] | TGI [23] | TGI [24] | TGI [26] | TGI [27] | TGI [28]
12800 nM: TGI [1]
111 nM: TGI [7]
17.5 nM: TGI [29]
1550 nM: TGI [2]
inactive: GI50 [5] 1380 nM | GI50 [6] 607 nM | GI50 [9] 490 nM | GI50 [10] 34000 nM | GI50 [11] 1660 nM | GI50 [21] 1030 nM | GI50 [23] 781 nM | GI50 [24] 806 nM | GI50 [27] 2900 nM | GI50 [28] 12400 nM
16300 nM: TGI [20]
